From patent US9102614B2, “Naphth-2-ylacetic acid derivatives to treat AIDS” (Gilead Sciences, Inc., priority 2010, dated 2015)

The compounds below were run on HIV-IIIb (assay: Test A: Antiviral Assays in MT4 Cells). Details: Human immunodeficiency virus 1, IIIB, MT4, 120 h.
Assay type: cell-based
Procedure, shortened: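 MT-4 cells pre-infected with HIV-IIIb (0.004 m.o.i.) at 37 °C, then plated with 3-fold serially diluted compound (10 concentrations, quadruplicate, RPMI 1640/10% FBS). After 5 days at 37 °C, cell viability read by CellTiter-Glo chemiluminescence; mock-infected cells run in parallel.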
In the case of Cc1cc2c(C#CCN(C)C)cccc2c(-c2ccc(Cl)cc2)c1C(OC(C)(C)C)C(=O)O (stereo not shown) [Compound 39, 2-tert-Butoxy-2-(1-(4-chlorophenyl)-5-(3-(dimethylamino)prop-1-ynyl)-3-methylnaphthalen-2-yl)acetic acid], the EC50 is reported as 700 nM.
Work on Cc1cc2cc(F)c(F)cc2c(-c2ccc3c4c(ccnc24)CCO3)c1[C@H](OC(C)(C)C)C(=O)O [Compound 108, (S)-2-tert-Butoxy-2-((R)-1-(2,3-dihydropyrano[4,3,2-de]quinolin-7-yl)-6,7-difluoro-3-methylnaphthalen-2-yl)acetic acid] yielded an EC50 of 28 nM.

Same assay, conditions: Human immunodeficiency virus 1, IIIB, MT4, 120 h, MT-4 cells infected with HIV-IIIb (0.004 m.o.i.), 5 days of incubation, CellTiter-Glo chemiluminescence readout; read-out: EC50
CCc1ccc2c(-c3ccc4c5c(ccnc35)CCO4)c([C@H](OC(C)(C)C)C(=O)O)c(C)cc2c1F (atropisomer, axis not shown) [Compound 120, (S)-2-tert-Butoxy-2-((R)-1-(2,3-dihydropyrano[4,3,2-de]quinolin-7-yl)-6-ethyl-5-fluoro-3-methylnaphthalen-2-yl)acetic acid] was tested, and the EC50 was 32 nM.
Compound Cc1cc2ccc(C#CC(C)(O)c3ccccc3)cc2c(-c2ccc(Cl)cc2)c1C(OC(C)(C)C)C(=O)O (stereo not shown) [Compound 88, 2-tert-Butoxy-2-(1-(4-chlorophenyl)-7-(3-hydroxy-3-phenylbut-1-ynyl)-3-methylnaphthalen-2-yl)acetic acid] has an EC50 of 24 nM.
For Cc1cc2ccc(Br)cc2c(-c2ccc(Cl)cc2)c1C(OC(C)(C)C)C(=O)O (stereo not shown) [Compound 71, 2-(7-Bromo-1-(4-chlorophenyl)-3-methylnaphthalen-2-yl)-2-tert-butoxyacetic acid], the EC50 was 35000 nM.
In the case of Cc1cc2cc(C(F)F)ccc2c(-c2ccc3c4c(ccnc24)CCO3)c1[C@H](OC(C)(C)C)C(=O)O [Compound 181, (S)-2-tert-butoxy-2-((R)-6-(difluoromethyl)-1-(2,3-dihydropyrano[4,3,2-de]quinolin-7-yl)-3-methylnaphthalen-2-yl)acetic acid], the EC50 is reported as 5 nM.
Cc1cc2ccc(CC(C)C)cc2c(-c2ccc(Cl)cc2)c1C(OC(C)(C)C)C(=O)O (stereo not shown) [Compound 94, 2-tert-Butoxy-2-(1-(4-chlorophenyl)-7-isobutyl-3-methylnaphthalen-2-yl)acetic acid] was tested, and the EC50 was 12000 nM.
With Cc1cc2cc(Cl)ccc2c(-c2ccc(Cl)cc2)c1C(OC(C)(C)C)C(=O)O (racemic) [Compound 67, 2-tert-Butoxy-2-(6-chloro-1-(4-chlorophenyl)-3-methylnaphthalen-2-yl)acetic acid] the EC50 was 290 nM.
Compound Cc1cc2c(C#N)cc(F)cc2c(-c2ccc3c4c(ccnc24)CCO3)c1[C@H](OC(C)(C)C)C(=O)O (atropisomer, axis not shown) [Compound 154] has an EC50 of 29000 nM.
For COC(=O)NC(C)(C)C#Cc1ccc2cc(C)c(C(OC(C)(C)C)C(=O)O)c(-c3ccc(Cl)cc3)c2c1 (stereo not shown) [Compound 97, 2-tert-Butoxy-2-(1-(4-chlorophenyl)-7-(3-(methoxycarbonylamino)-3-methylbut-1-ynyl)-3-methylnaphthalen-2-yl)acetic acid], the EC50 was 300 nM.
For Cc1cc2cc(-c3ccccn3)ccc2c(-c2ccc(Cl)cc2)c1[C@H](OC(C)(C)C)C(=O)O [Compound 63, (S)-2-tert-Butoxy-2-(1-(4-chlorophenyl)-3-methyl-6-(pyridin-2-yl)naphthalen-2-yl)acetic acid], the EC50 was 99 nM.
Cc1cc2c(-c3ccc(Cl)cc3)cccc2c(-c2ccc(Cl)cc2)c1C(OC(C)(C)C)C(=O)O (stereo not shown) [Compound 38, 2-(1,5-Bis(4-chlorophenyl)-3-methylnaphthalen-2-yl)-2-tert-butoxyacetic acid] gave an EC50 of 3400 nM.
Work on Cc1cc2ccccc2c(C2=CC(C)(C)CCC2=O)c1[C@H](OC(C)(C)C)C(=O)O [Compound 11, (S)-2-tert-Butoxy-2-(1-(3,3-dimethyl-6-oxocyclohex-1-enyl)-3-methylnaphthalen-2-yl)acetic acid] yielded an EC50 of 8900 nM.
With Cc1cc2ccc(C#CC3(O)CCN(C)CC3)cc2c(-c2ccc(Cl)cc2)c1C(OC(C)(C)C)C(=O)O (stereo not shown) [Compound 79, 2-tert-Butoxy-2-(1-(4-chlorophenyl)-7-((4-hydroxy-1-methylpiperidin-4-yl)ethynyl)-3-methylnaphthalen-2-yl)acetic acid] the EC50 was 89 nM.
For Cc1cc2c(Cl)c(C)ccc2c(-c2ccc3c4c(ccnc24)CCO3)c1[C@H](OC(C)(C)C)C(=O)O (atropisomer, axis not shown) [Compound 151], the EC50 was 850 nM.
Cc1cc2ccc(C#CC3(O)CCOCC3)cc2c(-c2ccc(Cl)cc2)c1C(OC(C)(C)C)C(=O)O (stereo not shown) [Compound 80, 2-tert-Butoxy-2-(1-(4-chlorophenyl)-7-((4-hydroxytetrahydro-2H-pyran-4-yl)ethynyl)-3-methylnaphthalen-2-yl)acetic acid] showed an EC50 of 51 nM.
Work on Cc1cc2cc(-c3cn[nH]c3)ccc2c(-c2ccc(Cl)cc2)c1[C@H](OC(C)(C)C)C(=O)O [Compound 57, (S)-2-tert-Butoxy-2-(1-(4-chlorophenyl)-3-methyl-6-(1H-pyrazol-4-yl)naphthalen-2-yl)acetic acid] yielded an EC50 of 82 nM.
Compound Cc1cc2ccc(C#Cc3cncn3C)cc2c(-c2ccc(Cl)cc2)c1C(OC(C)(C)C)C(=O)O (stereo not shown) [Compound 81, 2-tert-Butoxy-2-(1-(4-chlorophenyl)-3-methyl-7-((1-methyl-1H-imidazol-5-yl)ethynyl)naphthalen-2-yl)acetic acid] has an EC50 of 150 nM.
For Cc1cc2ccc(C#CC(C)(C)N)cc2c(-c2ccc3c4c(ccnc24)CCO3)c1C(OC(C)(C)C)C(=O)O [Compound 86, (S)-2-((R)-7-(3-Amino-3-methylbut-1-ynyl)-1-(2,3-dihydropyrano[4,3,2-de]quinolin-7-yl)-3-methylnaphthalen-2-yl)-2-tert-butoxyacetic acid], the EC50 was 980 nM.
Work on Cc1c(C(OC(C)(C)C)C(=O)O)c(-c2ccc(Cl)cc2)c2ccccc2c1-c1cncnc1 (stereo not shown) [Compound 139, 2-tert-Butoxy-2-(1-(4-chlorophenyl)-3-methyl-4-(pyrimidin-5-yl)naphthalen-2-yl)acetic acid] yielded an EC50 of 10 nM.
Work on CNC(=O)c1cc2cc(C)c([C@H](OC(C)(C)C)C(=O)O)c(-c3ccc4c5c(ccnc35)CCO4)c2cc1F (atropisomer, axis not shown) [Compound 166] yielded an EC50 of 16000 nM.
Work on CCc1c(C)c(C(OC(C)(C)C)C(=O)O)c(-c2ccc(Cl)cc2)c2ccccc12 (stereo not shown) [Compound 129, 2-tert-Butoxy-2-(1-(4-chlorophenyl)-4-ethyl-3-methylnaphthalen-2-yl)acetic acid] yielded an EC50 of 170 nM.
For CCc1ccc2cc(C)c(C(OC(C)(C)C)C(=O)O)c(-c3ccc(Cl)cc3)c2c1 (stereo not shown) [Compound 93, 2-tert-Butoxy-2-(1-(4-chlorophenyl)-7-ethyl-3-methylnaphthalen-2-yl)acetic acid], the EC50 was 86 nM.

Same assay, conditions: MT-4 cells infected with HIV-IIIb (0.004 m.o.i.), 5 days of incubation, CellTiter-Glo chemiluminescence readout; read-out: EC50
Cc1cc2c(F)c(CO)ccc2c(-c2ccc3c4c(ccnc24)CCO3)c1[C@H](OC(C)(C)C)C(=O)O [Compound 186B, (S)-2-tert-butoxy-2-((R)-1-(2,3-dihydropyrano[4,3,2-de]quinolin-7-yl)-5-fluoro-6-(hydroxymethyl)-3-methylnaphthalen-2-yl)acetic acid] showed an EC50 of 24 nM.
Cc1cc2c(C(N)=O)cc(F)cc2c(-c2ccc3c4c(ccnc24)CCO3)c1[C@H](OC(C)(C)C)C(=O)O [Compound 113B, (S)-2-tert-Butoxy-2-((R)-5-carbamoyl-1-(2,3-dihydropyrano[4,3,2-de]quinolin-7-yl)-7-fluoro-3-methylnaphthalen-2-yl)acetic acid] showed an EC50 of 460 nM.
Cc1cc2cc(Cl)c(F)cc2c(-c2ccc3c4c(ccnc24)CCO3)c1[C@H](OC(C)(C)C)C(=O)O [Compound 101, (S)-2-tert-Butoxy-2-((R)-6-chloro-1-(2,3-dihydropyrano[4,3,2-de]quinolin-7-yl)-7-fluoro-3-methylnaphthalen-2-yl)acetic acid] was tested, and the EC50 was 41 nM.
For Cc1cc2cc(C#N)c(F)cc2c(-c2ccc3c4c(ccnc24)CCO3)c1[C@H](OC(C)(C)C)C(=O)O [Compound 106A, (S)-2-tert-Butoxy-2-((R)-6-cyano-1-(2,3-dihydropyrano[4,3,2-de]quinolin-7-yl)-7-fluoro-3-methylnaphthalen-2-yl)acetic acid], the EC50 was 86 nM.
Cc1cc2cc(F)c(F)cc2c(-c2ccc3c4c(ccnc24)CCO3)c1[C@@H](OC(C)(C)C)C(=O)O (atropisomer, axis not shown) [Compound 173] was tested, and the EC50 was 3200 nM.
For Cc1cc2cc(C)c([C@H](OC(C)(C)C)C(=O)O)c(-c3ccc4c5c(ccnc35)CCO4)c2cc1F [Compound 112, (S)-2-tert-Butoxy-2-((R)-1-(2,3-dihydropyrano[4,3,2-de]quinolin-7-yl)-7-fluoro-3,6-dimethylnaphthalen-2-yl)acetic acid], the EC50 was 9 nM.
For Cc1cc2cc(C(C)C)c(F)cc2c(-c2ccc3c4c(ccnc24)CCO3)c1[C@H](OC(C)(C)C)C(=O)O [Compound 102, (S)-2-tert-Butoxy-2-((R)-1-(2,3-dihydropyrano[4,3,2-de]quinolin-7-yl)-7-fluoro-6-isopropyl-3-methylnaphthalen-2-yl)acetic acid], the EC50 was 37 nM.
Compound Cc1cc2c(F)c(Cl)ccc2c(-c2ccc3c4c(ccnc24)CCO3)c1[C@H](OC(C)(C)C)C(=O)O (atropisomer, axis not shown) [Compound 152] has an EC50 of 5800 nM.
With Cc1cc2c(-c3cncnc3)cc(F)cc2c(-c2ccc3c4c(ccnc24)CCO3)c1[C@H](OC(C)(C)C)C(=O)O [Compound 114, (S)-2-tert-butoxy-2-((R)-1-(2,3-dihydropyrano[4,3,2-de]quinolin-7-yl)-7-fluoro-3-methyl-5-(pyrimidin-5-yl)naphthalen-2-yl)acetic acid] the EC50 was 1900 nM.
Cc1cc2cc(F)c(F)cc2c(-c2ccc3c4c(ccnc24)CCO3)c1[C@@H](OC(C)(C)C)C(=O)O [Compound 109, (R)-2-tert-Butoxy-2-((R)-1-(2,3-dihydropyrano[4,3,2-de]quinolin-7-yl)-6,7-difluoro-3-methylnaphthalen-2-yl)acetic acid] gave an EC50 of 29000 nM.
Compound Cc1cc2c(Cl)cccc2c(-c2ccc3c4c(ccnc24)CCO3)c1C(OC(C)(C)C)C(=O)O (stereo not shown) [Compound 163] has an EC50 of 16000 nM.
